The target in one test is PD-1/PD-L1 (Homo sapiens (Human), UniProt Q9NZQ7). The experiment in a line: PD-1/PD-L1 Homogeneous Time-Resolved Fluorescence (HTRF) binding assay. The following applies: 3 nM PD1, 10 nM PD-L1, 25° C., PBS pH 7.4. The procedure:
PD-1/PD-L1 Homogeneous Time-Resolved Fluorescence (HTRF) Binding Assay
The assays were conducted in a standard black 384-well polystyrene plate with a final volume of 20 μL. Inhibitors were first serially diluted in DMSO and then added to the plate wells before the addition of other reaction components. The final concentration of DMSO in the assay was 1%. The assays were carried out at 25° C. in the PBS buffer (pH 7.4) with 0.05% Tween-20 and 0.1% BSA. Recombinant human PD-L1 protein (19-238) with a Histag at the C-terminus was purchased from AcroBiosystems (PD1-H5229). Recombinant human PD-1 protein (25-167) with Fe tag at the C-terminus was also purchased from AcroBiosystems (PD1-H5257). PD-L1 and PD-1 proteins were diluted in the assay buffer and 10 μL was added to the plate well. Plates were centrifuged and proteins were preincubated with inhibitors for 40 minutes. The incubation was followed by the addition of 10 μL of HTRF detection buffer supplemented with Europium cryptate-labeled anti-human IgG (PerkinElmer-AD0212) specific for Fe and anti-His antibody conjugated to SureLight®-Allophycocyanin (APC, PerkinElmer-AD0059H). After centrifugation, the plate was incubated at 25° C. for 60 min. before reading on a PHERAstar FS plate reader (665 nm/620 nm ratio). Final concentrations in the assay were—3 nM PD1, 10 nM PD-L1, 1 nM europium anti-human IgG and 20 nM anti-His-Allophycocyanin. IC50 determination was performed by fitting the curve of percent control activity versus the log of the inhibitor concentration.

For the next test, the target named is PD-L1/CHO-K1 cells (Homo sapiens (Human), UniProt Q9NZQ7). In words: PD-L1 internalization (FACS, PD-L1/CHO-K1 cells). The note with it: % activation of PD-L1 internalization = 1 − PD-L1 signal; 17 hours incubation. It counts as cell-based. On the procedure: Day 1. Seeding cells: Digest the PD-L1/CHO-K1 cells by trypsin in the flask, then counting the cell number and diluted to 1×10^5 cells/ml. Seeding cells to 6 well plate (Corning, #3516), 2 mL/well. The plates were incubated at 37° C., […] incubator for 24 hours.
Day 2. Preparing compounds and treated cells: Dilute GLC01-258 from 15 mM to 0.5 mM by using DMSO, and 15 mM compound were serial diluted from 15 mM˜15 nM by DMSO, Then 500 times dilute the compounds by using assay buffer. Prepare 0.2% DMSO in assay buffer used for Vehicle control and low control. Take out the plates, aspirated the medium and thrown away. Adding 2 mL of the diluted compounds, vehicle control and low control to corresponding wells. Then incubated the plates for 17 hours at 37° C., 5% CO2 incubator.
Day 3. Preparing samples for FACS: After 17 hours incubation, discarded medium and washed by the PBS. Cells in each well were Digested by trypsin. Centrifuge and discard the supernatant, then wash the cells by DPBS (Ca^2+, Mg^2+ free) for twice. 10 fold dilute the antibody (PE-conjugated mouse anti-human CD274) by DPBS, then adding the staining solution to compounds treated samples and vehicle control sample. The low control only add DPBS without antibody. Incubate the plates at room temperature for 20 minutes and protect from light. After 20 minutes, wash the samples by DPBS for twice. Then centrifuge and discard the supernatant. Resuspend cells by 300 uL DPBS and transfer the samples to 5 mL Polystryrene Round-Bottom Tube (Falcon, #352054), then tested by BD FACSCanto. […].
Set the PD-L1 signal of vehicle control as 100%, PD-L1 signal of Low control as 0%. Then calculate the compound treated samples' PD-L1 signal
0% PD-L1 signal: Low control which stained without anti-CD274
100% PD-L1 Signal: vehicle control which stained with anti-CD274
The % activation of PD-L1 Internalization=1−PD-L1 signal of compound.

Chain of PD-L1/CHO-K1 cells (Q9NZQ7 19-290): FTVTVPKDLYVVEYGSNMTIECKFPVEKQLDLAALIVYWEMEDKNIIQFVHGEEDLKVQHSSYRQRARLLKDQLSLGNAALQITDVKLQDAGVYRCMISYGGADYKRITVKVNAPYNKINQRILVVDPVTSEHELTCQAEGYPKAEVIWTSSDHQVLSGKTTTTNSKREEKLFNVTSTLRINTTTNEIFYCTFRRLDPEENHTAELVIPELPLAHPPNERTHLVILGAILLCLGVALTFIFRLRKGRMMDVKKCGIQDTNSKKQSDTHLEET
Chain of PD-1/PD-L1 (Q9NZQ7 19-238): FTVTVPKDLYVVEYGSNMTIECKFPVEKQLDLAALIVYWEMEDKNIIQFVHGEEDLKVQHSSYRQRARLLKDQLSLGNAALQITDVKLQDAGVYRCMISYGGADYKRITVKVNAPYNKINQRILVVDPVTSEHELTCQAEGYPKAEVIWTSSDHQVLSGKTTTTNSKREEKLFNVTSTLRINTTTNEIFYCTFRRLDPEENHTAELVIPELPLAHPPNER

Turning to `O=C1CC[C@@H](CN2C(=O)COc3cc(-c4cccc(-c5cccc(-c6ccc7c(c6)OCC(=O)N7C[C@@H]6CCC(=O)N6)c5Cl)c4Cl)ccc32)N1` [Compound 338], the IC50 at PD-1/PD-L1 came out at 1.46 nM. This compound came in with an Internalization at PD-L1/CHO-K1 cells of 6.80%.

In the case of `O=C1CC[C@@H](CN2C(=O)CNc3cc(-c4cccc(-c5cccc(-c6ccc7c(c6)NCC(=O)N7C[C@@H]6CCC(=O)N6)c5Cl)c4Cl)ccc32)N1` [Compound 363], the IC50 at PD-1/PD-L1 stood at 2.16 nM. The same compound yielded an Internalization on PD-L1/CHO-K1 cells of 5.50%.

With `O=C1CC(CN2C(=O)COc3cc(-c4cccc(-c5cccc(-c6ccc7c(c6)OCC(=O)N7CC6CNC(=O)C6)c5Cl)c4Cl)ccc32)CN1` (stereo not drawn) [Compound 373], the IC50 on PD-1/PD-L1 worked out at 3.79 nM. The Internalization on PD-L1/CHO-K1 cells is given as 3.20%.

Consider `O=C1CC[C@@H](CN2C(=O)COc3cc(-c4cccc(-c5cccc(-c6cc7c(cc6F)N(C[C@@H]6CCC(=O)N6)C(=O)CO7)c5Cl)c4Cl)c(F)cc32)N1` [Compound 388], for which, on PD-1/PD-L1, the IC50 was 1.1 nM. For the same compound, the Internalization at PD-L1/CHO-K1 cells is on record as 6.10%.

On PD-1/PD-L1, `O=C1CC[C@@H](CN2C(=O)COc3c2ccc(-c2cccc(-c4cccc(-c5ccc6c(c5F)OCC(=O)N6C[C@@H]5CCC(=O)N5)c4Cl)c2Cl)c3F)N1` [Compound 395] returned an IC50 of 6.26 nM. This compound registered an Internalization on PD-L1/CHO-K1 cells of 2.50%.

In the case of `CN1CC(=O)N(C[C@@H]2CCC(=O)N2)c2ccc(-c3cccc(-c4cccc(-c5ccc6c(c5)N(C)CC(=O)N6C[C@@H]5CCC(=O)N5)c4Cl)c3Cl)cc21` [Compound 402], at PD-1/PD-L1, the IC50 was 1.98 nM. On PD-L1/CHO-K1 cells, this compound returned an Internalization of 2.40%.

On to `O=C1COc2cc(-c3cccc(-c4cccc(-c5ccc6c(c5)OCC(=O)N6CCNCCO)c4Cl)c3Cl)ccc2N1CCNCCO` [Compound 445], for which the IC50 at PD-1/PD-L1 was determined as 5.01 nM. Besides, the Internalization on PD-L1/CHO-K1 cells was found to be 20.50%.

`O=C1CC[C@@H](CNCCN2C(=O)COc3cc(-c4cccc(-c5cccc(-c6ccc7c(c6)OCC(=O)N7CCNC[C@@H]6CCC(=O)N6)c5Cl)c4Cl)ccc32)N1` [Compound 449] had an IC50 on PD-1/PD-L1 of 3.89 nM. At PD-L1/CHO-K1 cells, this compound had an Internalization of 12.20%.

For the compound `CN(CCN1C(=O)COc2cc(-c3cccc(-c4cccc(-c5ccc6c(c5)OCC(=O)N6CCN(C)C[C@@H]5CCC(=O)N5)c4Cl)c3Cl)ccc21)C[C@@H]1CCC(=O)N1` [Compound 460], on PD-1/PD-L1, the IC50 is 9.9 nM. The compound further returned an Internalization on PD-L1/CHO-K1 cells of 1.90%.

Compound `O=C(O)CCNCCN1C(=O)COc2cc(-c3cccc(-c4cccc(-c5ccc6c(c5)OCC(=O)N6CCNCCC(=O)O)c4Cl)c3Cl)ccc21` [Compound 468] registered an IC50 on PD-1/PD-L1 of 4.9 nM. This compound displayed an Internalization at PD-L1/CHO-K1 cells of 20.90%.

On to `O=C(O)CNCCCN1C(=O)COc2cc(-c3cccc(-c4cccc(-c5ccc6c(c5)OCC(=O)N6CCCNCC(=O)O)c4Cl)c3Cl)ccc21` [Compound 479], for which the IC50 on PD-1/PD-L1 amounted to 6.02 nM.

Consider `O=C(O)[C@@H]1C[C@@H](O)CN1CCN1C(=O)COc2cc(-c3cccc(-c4cccc(-c5ccc6c(c5)OCC(=O)N6CCN5C[C@@H](O)C[C@H]5C(=O)O)c4Cl)c3Cl)ccc21` [Compound 482], for which, at PD-1/PD-L1, the IC50 turned out to be 6.72 nM.

On to `O=C(O)[C@H]1C[C@@H](O)CN1CCN1C(=O)COc2cc(-c3cccc(-c4cccc(-c5ccc6c(c5)OCC(=O)N6CCN5C[C@H](O)C[C@@H]5C(=O)O)c4Cl)c3Cl)ccc21` [Compound 484], for which the IC50 at PD-1/PD-L1 was 6.53 nM. This IC50 and that of the compound before are within 1.5-fold of each other.

In turn, `O=C1CC[C@@H](CN2C(=O)COc3cc(-c4cccc(-c5cccc(-c6ccc7c(c6)OCC(=O)N7CCN6C[C@H](O)C[C@@H]6C(=O)O)c5Cl)c4Cl)ccc32)N1` [Compound 488] registered an IC50 on PD-1/PD-L1 of 6.2 nM.

`CC(=O)NCCNCCN1C(=O)COc2cc(-c3cccc(-c4cccc(-c5ccc6c(c5)OCC(=O)N6C[C@@H]5CCC(=O)N5)c4Cl)c3Cl)ccc21` [Compound 489]: the IC50 at PD-1/PD-L1 came out at 6.31 nM.

`O=C(O)CCCCNCCN1C(=O)COc2cc(-c3cccc(-c4cccc(-c5ccc6c(c5)OCC(=O)N6CCNCCCCC(=O)O)c4Cl)c3Cl)ccc21` [Compound 490] registered an IC50 on PD-1/PD-L1 of 3.51 nM.

As for `O=C(O)CCNCCN1C(=O)COc2cc(-c3cccc(-c4cccc(-c5ccc6c(c5)OCC(=O)N6CCN5CC[C@H](O)C5)c4Cl)c3Cl)ccc21` [Compound 491], on PD-1/PD-L1, the IC50 is 5.22 nM.

`O=C1CC[C@@H](CN2C(=O)COc3cc(-c4cccc(-c5cccc(-c6ccc7c(c6)OCC(=O)N7CCN6CC[C@H](O)C6)c5Cl)c4Cl)ccc32)N1` [Compound 492] registered an IC50 at PD-1/PD-L1 of 3.15 nM.

For the compound `O=C(O)C1CCN(CCN2C(=O)COc3cc(-c4cccc(-c5cccc(-c6ccc7c(c6)OCC(=O)N7CCNCCO)c5Cl)c4Cl)ccc32)C1` (stereo not drawn) [Compound 493], the concentration for half-maximal inhibition (IC50) on PD-1/PD-L1 stood at 5.59 nM.

As to `O=C(O)C1CCCCN1CCN1C(=O)COc2cc(-c3cccc(-c4cccc(-c5ccc6c(c5)OCC(=O)N6CCN5CCCCC5C(=O)O)c4Cl)c3Cl)ccc21` (stereo not drawn) [Compound 513], the IC50 on PD-1/PD-L1 was 8.23 nM.

For the compound `Cc1c(-c2ccc3c(c2)OCC(=O)N3CCN2C[C@H](O)C[C@H]2C(=O)O)cccc1-c1cccc(-c2ccc3c(c2)OCC(=O)N3CCN2C[C@H](O)C[C@H]2C(=O)O)c1C` [Compound 514], on PD-1/PD-L1, the IC50 was 4.46 nM.

The compound `O=C1COc2cc(-c3cccc(-c4cccc(-c5ccc6c(c5)OCC(=O)N6C[C@@H]5CCCN5)c4Cl)c3Cl)ccc2N1CCN1CC[C@H](O)C1` [Compound 515] showed an IC50 at PD-1/PD-L1 of 8.71 nM.

Turning to `CC(=O)NCCNCCN1C(=O)COc2cc(-c3cccc(-c4cccc(-c5ccc6c(c5)OCC(=O)N6C[C@@H]5CCCN5)c4Cl)c3Cl)ccc21` [Compound 516], at PD-1/PD-L1, the IC50 came out at 10.5 nM. The IC50 values of the last two compounds are within 1.5-fold of each other.

In the case of `O=C1C[C@@H](NCCN2C(=O)COc3cc(-c4cccc(-c5cccc(-c6ccc7c(c6)OCC(=O)N7CCN[C@H]6COC(=O)C6)c5Cl)c4Cl)ccc32)CO1` [Compound 527], on PD-1/PD-L1, the IC50 came out at 9.41 nM.

The compound `O=C1COc2cc(-c3cccc(-c4cccc(-c5ccc6c(c5)OCC(=O)N6C[C@H]5CCNC5)c4Cl)c3Cl)ccc2N1C[C@H]1CCNC1` [Compound 531] displayed an IC50 on PD-1/PD-L1 of 7.22 nM.

Compound `O=C(O)[C@@H](O)CNCCN1C(=O)COc2cc(-c3cccc(-c4cccc(-c5ccc6c(c5)OCC(=O)N6CCNC[C@H](O)C(=O)O)c4Cl)c3Cl)ccc21` [Compound 553] displayed an Internalization on PD-L1/CHO-K1 cells of 9.40%.

Compound `O=C1COc2cc(-c3cccc(-c4cccc(-c5ccc6c(c5)OCC(=O)N6C[C@@H]5CCCCN5)c4Cl)c3Cl)ccc2N1C[C@@H]1CCCCN1` [Compound 558] yielded an IC50 on PD-1/PD-L1 of 10.6 nM.

For `O=C1COc2cc(-c3cccc(-c4cccc(-c5ccc6c(c5)OCC(=O)N6C[C@@H]5COCCN5)c4Cl)c3Cl)ccc2N1C[C@@H]1CCCCN1` [Compound 559], the IC50 on PD-1/PD-L1 was 8.98 nM.

On to `NC(=O)C[C@H](NCCN1C(=O)COc2cc(-c3cccc(-c4cccc(-c5ccc6c(c5)OCC(=O)N6CCN[C@@H](CC(N)=O)C(=O)O)c4Cl)c3Cl)ccc21)C(=O)O` [Compound 570], for which the IC50 on PD-1/PD-L1 was found to be 10.9 nM.

In the case of `CC(C)(C)OC[C@H](NCCN1C(=O)COc2cc(-c3cccc(-c4cccc(-c5ccc6c(c5)OCC(=O)N6CCN[C@@H](COC(C)(C)C)C(=O)O)c4Cl)c3Cl)ccc21)C(=O)O` [Compound 571], the IC50 at PD-1/PD-L1 stood at 16 nM. The IC50 values of the last two compounds are within 1.5-fold of each other.

At PD-1/PD-L1, `O=C(O)C1CCC(=O)N1CCN1C(=O)COc2cc(-c3cccc(-c4cccc(-c5ccc6c(c5)OCC(=O)N6CCN5C(=O)CCC5C(=O)O)c4Cl)c3Cl)ccc21` (stereo not drawn) [Compound 573] gave an IC50 of 287 nM.

At PD-L1/CHO-K1 cells, `O=C(O)[C@H](CO)NCCN1C(=O)COc2cc(-c3cccc(-c4cccc(-c5ccc6c(c5)OCC(=O)N6CCN[C@@H](CO)C(=O)O)c4F)c3F)ccc21` [Compound 613, (2S,2'S)-2,2′-((((2,2′-difluoro-[1,1′-biphenyl]-3,3′-diyl)bis(3-oxo-2,3-dihydro-4H-benzo[b][1,4]oxazine-7,4-diyl))bis(ethane-2,1-diyl))bis(azanediyl))bis(3-hydroxypropanoic acid)] gave an Internalization of 4.80%.
